# Data: patent US20240358693A1, “METHODS OF TREATING PAIN” (Aisa Pharma, Inc., priority 2023, published 2024)
# Test system: participants with SSc-RP
# Assay: Scleroderma Health Assessment Questionnaire (SHAQ): disability indices and visual analog scales
# Assay type: in vivo, human
# Details: for SHAQ Alternative Disability Index, Mean / SHAQ Alternative Disability Index, Median / SHAQ Standard Disability Index, Mean / SHAQ Standard Disability Index, Median: Patients with Diagnosis of SSc
# From the text: The standard, validated, patient reported outcome measures tool for SSc patients, the Scleroderma Health Assessment Questionnaire (SHAQ), will be used to assess the participant qualify of life. Details are attached in the Appendix. The participant quality of life will be scored, and a disability index calculated for each questionnaire completed by the patient at Screening and each in-clinic visit. The absolute change in participant quality of life from baseline to the end of each dosing period will be calculated similar to frequency data as before.
# The SHAQ includes a Raynaud's VAS, which will be reported at screening and each in-clinic visit. The absolute change in Raynaud-VAS, assessed by the participants response to the SHAQ question ‘In the past 7 days, how much have your Raynaud's interfered with your daily activities?’ at baseline and the end of each dosing period will be calculated similar to frequency data as before.
# The SHAQ is used to calculate a Disability Index to assess the participant qualify of life. The eight categories assessed by the Disability Index are 1) dressing and grooming, 2) arising, 3) eating, 4) walking, 5) hygiene, 6) reach, 7) grip, and 8) common daily activities. For each of these categories, patients report the amount of difficulty they have in performing two or three specific activities.
# There are four possible responses for the Disability Index questions: • Without any difficulty=0 • With some difficulty=1 • With much difficulty=2 • Unable to do=3. • The highest score reported by the patient for any component question of the eight categories determines the score for that category. • If a component question is left blank or the response is too ambiguous to assign a score, then the score for that category is determined by the remaining completed question(s). • If all component questions are blank or if more than one answer is given, then follow up with the respondent is required. • If the respondent's mark is between the response columns, then move it to the closest one. If it's directly between the two, move it to the higher one.
# Each of the disability items on the SHAQ has a companion aids/devices variable that is used to record what type(s) of assistance, if any, the participant uses for his/her usual activities. These variables (see below) are coded as follows: • 0=No assistance is needed. • 1=A special device is used by the patient in his/her usual activities. • 2=The patient usually needs help from another person. • 3=The patient usually needs BOTH a special device AND help from another person.
# The scoring variables and scoring rules permit the computation of two disability indices, the Standard Disability Index and the Alternative Disability Index.
# This question results in a new set of category scores that are computed by adjusting the score for each category, if necessary, based on the patient's use of an aid or device or assistance for that category. If either devices and/or help from another person are checked for a category, the score is set to “2”, unless the score is already “3” (i.e., scores of “0” or “1” are increased to “2”). For example, if the highest score for the dressing category is “1”, and the patient says they use a device for dressing, the computed category score would be “2”. The sum of the computed categories scores is then calculated and divided by the number of categories answered. This gives a score in the 0 to 3 range.
# The aid and device variables are not used to calculate the alternative disability index; it is calculated by adding the scores for each of the categories and dividing by the number of categories answered. This gives a score in the 0 to 3 range.
# The standard, validated, patient reported outcome measures tool for SSc patients, the SHAQ, was collected at the time points specified in the study schedules (FIG. 2 and FIGS. 4A and 4B) to assess the participant's quality of life. The SHAQ included a Raynaud's VAS that will also be reported separately.
# [1] = Day 12, mITT Part A, SSc patients, cilnidipine 10 mg and/or tadalafil 5 mg as in the arm
# [2] = Day 12, mITT Part A, SSc patients, cilnidipine 10 mg and/or tadalafil 5 mg as in the arm, subject 01-110 score excluded
# [3] = Day 12, mITT Part A, SSc patients, cilnidipine 20 mg (+ tadalafil 5 mg in the combination arm)
# [4] = In-Clinic Visit (Day 12), Cilnidipine 10 mg (N = 4), PP Population Part A
# [5] = In-Clinic Visit (Day 12), Cilnidipine 20 mg (N = 4), PP Population Part A
# [6] = In-Clinic Visit (Day 12), Pooled Cilnidipine 10 mg and Cilnidipine 10 mg + Tadalafil 5 mg (N = 9), PP Population Part A
structure (smiles),measurement,setting,value
"COCCOC(=O)C1=C(C)NC(C)=C(C(=O)OC/C=C/c2ccccc2)C1c1cccc([N+](=O)[O-])c1 (centres unmarked) [Cilnidipine, cilnidipine]","SHAQ Visual Analogue Scale - Raynaud's, Change from Baseline, Mean",[1],0.167
same,"SHAQ Visual Analogue Scale - Raynaud's, Change from Baseline, Median",[1],−0.100
same,"SHAQ Visual Analogue Scale - Raynaud's, In-Clinic Visit (Day 12), Mean",[1],2.300
same,"SHAQ Visual Analogue Scale - Raynaud's, In-Clinic Visit (Day 12), Median",[1],2.600
same,"SHAQ Visual Analogue Scale - Raynaud's, Percent Change from Baseline, Mean",[1],11.36%
same,"SHAQ Visual Analogue Scale - Raynaud's, Percent Change from Baseline, Median",[1],−2.27%
same,"SHAQ Visual Analogue Scale - Breathing Problems, Change from Baseline, Mean",[2],−0.400
same,"SHAQ Visual Analogue Scale - Breathing Problems, Change from Baseline, Median",[2],0.000
same,"SHAQ Visual Analogue Scale - Breathing Problems, In-Clinic Visit (Day 12), Mean",[2],2.100
same,"SHAQ Visual Analogue Scale - Breathing Problems, In-Clinic Visit (Day 12), Median",[2],0.000
same,"SHAQ Visual Analogue Scale - Breathing Problems, Percent Change from Baseline, Mean",[2],−16.00%
same,"SHAQ Visual Analogue Scale - Breathing Problems, Percent Change from Baseline, Median",[2],−16.00%
same,"SHAQ Alternative Disability Index, Change from Baseline, Mean",[3],−0.083
same,"SHAQ Alternative Disability Index, Change from Baseline, Median",[3],−0.125
same,"SHAQ Alternative Disability Index, In-Clinic Visit (Day 12), Mean",[3],0.125
same,"SHAQ Alternative Disability Index, In-Clinic Visit (Day 12), Median",[3],0.125
same,"SHAQ Alternative Disability Index, Percent Change from Baseline, Mean",[3],−41.67%
same,"SHAQ Alternative Disability Index, Percent Change from Baseline, Median",[3],−41.67%
same,"SHAQ Visual Analogue Scale - Breathing Problems, Change from Baseline, Mean",[3],−0.833
same,"SHAQ Visual Analogue Scale - Breathing Problems, Change from Baseline, Median",[3],−0.800
same,"SHAQ Visual Analogue Scale - Breathing Problems, In-Clinic Visit (Day 12), Mean",[3],0.300
same,"SHAQ Visual Analogue Scale - Breathing Problems, In-Clinic Visit (Day 12), Median",[3],0.400
same,"SHAQ Visual Analogue Scale - Breathing Problems, Percent Change from Baseline, Mean",[3],−5.56%
same,"SHAQ Visual Analogue Scale - Breathing Problems, Percent Change from Baseline, Median",[3],−66.67%
same,"SHAQ Visual Analogue Scale - Finger Ulcers, Change from Baseline, Mean",[3],−0.933
same,"SHAQ Visual Analogue Scale - Finger Ulcers, Change from Baseline, Median",[3],0.000
same,"SHAQ Visual Analogue Scale - Finger Ulcers, In-Clinic Visit (Day 12), Mean",[3],0.867
same,"SHAQ Visual Analogue Scale - Finger Ulcers, In-Clinic Visit (Day 12), Median",[3],0.700
same,"SHAQ Visual Analogue Scale - Finger Ulcers, Percent Change from Baseline, Mean",[3],35.29%
same,"SHAQ Visual Analogue Scale - Finger Ulcers, Percent Change from Baseline, Median",[3],35.29%
same,"SHAQ Visual Analogue Scale - Intestinal Problems, Change from Baseline, Mean",[3],0.300
same,"SHAQ Visual Analogue Scale - Intestinal Problems, Change from Baseline, Median",[3],0.300
same,"SHAQ Visual Analogue Scale - Intestinal Problems, In-Clinic Visit (Day 12), Median",[3],1.300
same,"SHAQ Visual Analogue Scale - Intestinal Problems, Percent Change from Baseline, Mean",[3],35.00%
same,"SHAQ Visual Analogue Scale - Intestinal Problems, Percent Change from Baseline, Median",[3],35.00%
same,"SHAQ Visual Analogue Scale - Overall Disease Severity, Change from Baseline, Median",[3],−1.600
same,"SHAQ Visual Analogue Scale - Overall Disease Severity, In-Clinic Visit (Day 12), Mean",[3],1.033
same,"SHAQ Visual Analogue Scale - Overall Disease Severity, In-Clinic Visit (Day 12), Median",[3],1.200
same,"SHAQ Visual Analogue Scale - Overall Disease Severity, Percent Change from Baseline, Median",[3],−60.00%
same,"SHAQ Visual Analogue Scale - Pain, Change from Baseline, Mean",[3],−1.100
same,"SHAQ Visual Analogue Scale - Pain, Change from Baseline, Median",[3],−0.800
same,"SHAQ Visual Analogue Scale - Pain, In-Clinic Visit (Day 12), Mean",[3],1.067
same,"SHAQ Visual Analogue Scale - Pain, In-Clinic Visit (Day 12), Median",[3],0.700
same,"SHAQ Visual Analogue Scale - Pain, Percent Change from Baseline, Mean",[3],−52.56%
same,"SHAQ Visual Analogue Scale - Pain, Percent Change from Baseline, Median",[3],−53.33%
same,"SHAQ Visual Analogue Scale - Raynaud's, Change from Baseline, Median",[3],−1.100
same,"SHAQ Visual Analogue Scale - Raynaud's, In-Clinic Visit (Day 12), Mean",[3],1.033
same,"SHAQ Visual Analogue Scale - Raynaud's, In-Clinic Visit (Day 12), Median",[3],1.100
same,"SHAQ Visual Analogue Scale - Raynaud's, Percent Change from Baseline, Median",[3],−44.00%
same,"SHAQ Alternative Disability Index, Mean",[4],0.563
same,"SHAQ Alternative Disability Index, Median",[4],0.500
same,"SHAQ Standard Disability Index, Mean",[4],0.656
same,"SHAQ Standard Disability Index, Median",[4],0.563
same,"SHAQ Alternative Disability Index, Mean",[5],0.219
same,"SHAQ Alternative Disability Index, Median",[5],0.188
same,"SHAQ Standard Disability Index, Mean",[5],0.281
same,"SHAQ Standard Disability Index, Median",[5],0.188
same,"SHAQ Visual Analogue Scale - Finger Ulcers, Mean",[6],0.389
same,"SHAQ Visual Analogue Scale - Finger Ulcers, Median",[6],0.000
same,"SHAQ Visual Analogue Scale - Intestinal Problems, Mean",[6],1.217
same,"SHAQ Visual Analogue Scale - Intestinal Problems, Median",[6],0.700
same,"SHAQ Visual Analogue Scale - Overall Disease Severity, Mean",[6],2.439
